Test results taken from patent publication US10905118B2, “Triscationic amphiphile compounds, compositions, and methods for making same” (James Madison Innovations, Inc., priority 2014, dated 2021).
≈ marks a conversion by molar mass, not a printed value.

Assays:
Bacillus cereus = test: Minimum inhibitory concentration, B. cereus; format: cell-based; settings: Mueller-Hinton Broth, 37° C., 72 h
Protocol: (§1) The MIC values of all compounds from both double-tailed series were determined for four Gram-positive (Staphylococcus aureus, Enterococcus faecalis, Streptococcus agalactiae, and Bacillus cereus) and two Gram-negative (Escherichia coli and Pseudomonas aeruginosa) strains, which are shown in Table 3.
(§2) The Gram-positive bacterial strains used tested were Staphylococcus aureus subsp. aureus ATCC® 29213™, Enterococcus faecalis ATCC® 29212™, Bacillus cereus, and Streptococcus agalactiae J48.^58 The Gram-negative bacterial strains used were Escherichia coli ATCC® 25922™ and Pseudomonas aeruginosa ATCC® 27853™. All strains were grown in 1× Mueller-Hinton Broth at 37° C. for 12-24 h. For the MIC and combination studies, bacterial suspensions were prepared by diluting overnight cultures to 5×10^6 CFU/mL in 2× Mueller-Hinton Broth, so that when amphiphile solutions are added the final broth strength is 1×.
(§3) The methods used to determine the MIC and MBC were performed as previously described and followed the standards set forth by the Clinical and Laboratory Standards Institute (See Ladow, J. E.; Warnock, D. C.; Hamill, K. M.; Simmons, K. L.; Davis, R. W.; Schwantes, C. R.; Flaherty, D. C.; Willcox, J. A. L.; Wilson-Henjum, K.; Caran, K. L.; Minbiole, K. P. C.; Seifert, K. Bicephalic amphiphile architecture affects antibacterial activity. Eur. J. Med. Chem. 2011, 46, 4219-4226 and P. A. Wayne Methods for dilution antimicrobial tests for bacteria that grow aerobically. 2009.). Briefly, compounds were serially diluted and 100 μL of each dilution were added to the wells of a 96-well flat-bottomed microtiter plate in triplicate. After adding 100 μL of the bacterial cell suspension, the plates were incubated at 37° C. for 72 h. […] The MIC was considered to be bactericidal if the MBC was the same concentration or one concentration higher in the dilution series as the MIC, per Motyl, M.; Dorso, K.; Barrett, J.; Giacobbe, R. Basic microbiological techniques used in antibacterial drug discovery. Curr. Protoc. Pharmacol. 2006, Chapter 13.

Staphylococcus aureus = test: Minimum inhibitory concentration, S. aureus; format: cell-based, Staphylococcus aureus subsp. aureus ATCC 29213; settings: Mueller-Hinton Broth, 37° C., 72 h
Protocol: as §1, §2, §3

Escherichia coli = test: Minimum inhibitory concentration, E. coli; format: cell-based, Escherichia coli ATCC 25922; settings: Mueller-Hinton Broth, 37° C., 72 h
Protocol: as §1, §2, §3

[1] = Isothermal titration calorimetry: critical aggregation concentration and thermodynamics of aggregation; format: physicochemical; settings: 37° C., single-tailed M-1,1,n series; for CAC: ITC
Streptococcus agalactiae = test: Minimum inhibitory concentration, S. agalactiae; format: cell-based, Streptococcus agalactiae J48; settings: Mueller-Hinton Broth, 37° C., 72 h
Protocol: as §1, §2, §3

Enterococcus faecalis = test: Minimum inhibitory concentration, E. faecalis; format: cell-based, Enterococcus faecalis ATCC 29212; settings: Mueller-Hinton Broth, 37° C., 72 h
Protocol: as §1, §2, §3

[2] = Isothermal titration calorimetry: critical aggregation concentration and thermodynamics of aggregation; format: physicochemical; settings: for −TΔSmic: Gibbs-Helmholtz equation; for −TΔSmic / ΔGmic: double-tailed series; for ΔGmic: approximated with RT ln(CAC/55.5); for CMC / ΔHmic: pure water, double-tailed M-P and M-1 series; for −TΔSagg term (sign, in words): Table 1
Protocol: Isothermal titration calorimetry (ITC) was used to determine the critical aggregation concentration (CAC) and the thermodynamic parameters at 37° C. associated with aggregate formation for each double-tailed amphiphile for the M-P and M-1 series, as shown in Table 1.
A Nano ITC was used to measure the heat change associated with the deaggregation of amphiphiles via power compensation. A concentrated aqueous solution of amphiphile (>>CAC) was titrated into a thermally controlled sample cell, initially containing pure water, in a series of discrete injections. Isothermal titration calorimetry was used to determine the critical aggregation concentration (CAC) and ΔHagg. Shown in FIG. 5 is the heat rate associated with each injection versus time for 9 (M-1,14,14). Shown in FIG. 6 is the integration of the heat per injection normalized by the number of moles of each injection versus the increasing concentration of amphiphile in the well. In FIG. 6, inset, CAC is determined by calculating the first derivative the heat curve.
During initial injections (Range I), measured heat changes are due to both the dilution of aggregates and deaggregation. This can be observed in the first 10 injections, where aggregates absorbed heat and disassociated into dissolved monomers. The heat change produced by each injection was approximately constant in this range. In Range II, injected aggregates don't fully dissociate, reducing the total absorbed heat for each subsequent injection. At concentrations well above the CAC (Range III), absorbed heat is attributed only to the dilution of aggregates and is approximately constant. […] CAC and thermodynamic data were not determined for the amphiphiles with the shortest tails [1 (M-P,8,8) and 6 (M-1,8,8)] because the heat evolved during injection was […] the threshold of the instrument.
The difference between the average heat of injections in Range I, representing the total heat due to the dilution of aggregates and deaggregation, and the average heat of injections in Range III, representing the heat due solely to the dilution of aggregates, gives the heat of deaggregation, ΔHdeagg. The ΔHdeagg for compound 9 (M-1,14,14) is 37 kJ/mol, corresponding to a heat of aggregate formation, ΔHagg, of −37 kJ/mol (ΔHagg=−ΔHdeagg).
The ΔGagg can be approximated for the aggregation of nonionic amphiphiles by the equation: ΔGagg=RT ln(CAC/55.5) (3)
where m is the concentration of counterions that associate with a aggregate and n is the number of monomers that associate to form an aggregate. […] BBA-Biomembranes. 2000, 1508, 69-85.)
The entropy of aggregation (ΔSagg) is dictated by a combination of entropic factors that favor or disfavor aggregate formation and can be approximated using the Gibbs-Helmholtz equation: ΔGagg=ΔHagg−TΔSagg (5)
CAC and ΔHagg were determined using a Nano-ITC (TA-Instruments). Prior to each experiment the sample cell was washed with dH2O (300 mL), ethanol (100 mL), dH2O (300 mL) and nanopure water (200 mL). Next, 950 μL of nanopure water was added to the sample cell. A concentrated aqueous solution (>>CAC) of amphiphile was prepared and equilibrated at 37° C. A 250 μL syringe was filled with the aqueous solution, and loaded into the Nano ITC. Multiple single injections in aliquots of 5 μL were injected into the sample cell with time intervals varying from 300 s to 1400 s. Samples were continuously stirred (300 rpm) throughout the titration. The Nano-Analyze program (TA-Instruments) was used to analyze the data. CAC and ΔHagg values reported are the average of two or more repeat experiments for each amphiphile.

Pseudomonas aeruginosa [3] = test: Minimum inhibitory concentration, P. aeruginosa; format: cell-based, Pseudomonas aeruginosa ATCC 27853; settings: Mueller-Hinton Broth, 37° C., 72 h
Protocol: as §1, §2, §3

Pseudomonas aeruginosa [4] = settings: literature comparison values; cited from earlier work

Row | Compound | MIC B. cereus (G+) (Bacillus cereus) [µM] | MIC S. aureus (G+) (Staphylococcus aureus) [µM] | MIC E. coli (G−) (Escherichia coli) [µM] | ΔGagg [1] [kcal/mol] | −TΔSagg [1] [kcal/mol] | CAC [1] [mM] | MIC S. agalactiae (G+) (Streptococcus agalactiae) [µM] | MIC E. faecalis (G+) (Enterococcus faecalis) [µM] | ΔHagg ([2]; ITC, 37° C.) [kcal/mol] | MIC P. aeruginosa (G−) (Pseudomonas aeruginosa [3]) [µM] | −TΔSmic ([2]; 37° C.) [kcal/mol] | ΔGmic ([2]; 37° C.) [kcal/mol] | CMC ([2]; ITC, 37° C.) [mM] | ΔHmic ([2]; ITC, 37° C.) [kcal/mol] | ΔHdeagg (heat of deaggregation) ([2]; ITC, 37° C., Range I minus Range III) [kcal/mol] | −TΔSagg term (sign, in words) [2] | MIC against P. aeruginosa (comparison drugs) (Pseudomonas aeruginosa [4]) [µM]
1 | CCCCCCCCCCCCCC[N+](C)(C)Cc1cc(C[N+](C)(C)C)cc(C[N+](C)(C)C)c1.[Br-].[Br-].[Br-] [Compound S4] | 16 | 63 | 250 | -4.78 | -2.39 | 21 | 16 | 31 | -2.39 | >250 | – | – | – | – | – | – | –
2 | CCCCCCCCCCCCCCCCCCCCCC[N+](C)(C)Cc1cc(C[N+](C)(C)C)cc(C[N+](C)(C)C)c1.[Br-].[Br-].[Br-] [Compound S8] | >250 | >250 | 63 | -6.69 | 1.22 | 0.99 | >250 | >250 | -7.89 | >250 | – | – | – | – | – | – | –
3 | CCCCCCCCCCCCCCCCCC[N+](C)(C)Cc1cc(C[N+](C)(C)C)cc(C[N+](C)(C)C)c1.[Br-].[Br-].[Br-] [Compound S6] | 4 | 16 | 16 | -5.74 | -0.574 | 5.0 | 2 | 4 | -5.26 | 125 | – | – | – | – | – | – | –
4 | CCCCCCCCCCCCCCCCCCCC[N+](C)(C)Cc1cc(C[N+](C)(C)C)cc(C[N+](C)(C)C)c1.[Br-].[Br-].[Br-] [Compound S7] | 4 | 16 | 31 | -6.21 | 0.382 | 2.0 | 4 | 4 | -6.69 | 250 | – | – | – | – | – | – | –
5 | CCCCCCCCCCCCCC[N+](C)(C)Cc1cc(C[N+](C)(C)C)cc(C[N+](C)(C)CCCCCCCCCCCCCC)c1.[Br-].[Br-].[Br-] [Compound 9] | 4 | 4 to 8 | 8 | – | – | – | 2 to 4 | 4 | -8.84 | 125 | -1.91 | -6.93 | 0.61 | -8.84 | 8.84 | positive | –
6 | CCCCCCCCCCCCCCCC[N+](C)(C)Cc1cc(C[N+](C)(C)C)cc(C[N+](C)(C)C)c1.[Br-].[Br-].[Br-] [Compound S5] | 4 | 31 | 31 | -5.26 | -2.03 | 9.2 | 4 | 8 | -3.35 | >250 | – | – | – | – | – | – | –
7 | CCCCCCCCCCCCCCCC[N+](C)(C)Cc1cc(C[N+](C)(C)C)cc(C[N+](C)(C)CCCCCCCCCCCCCCCC)c1.[Br-].[Br-].[Br-] [Compound 10] | 16 | 16 | 63 | – | – | – | 8 | 32 | – | >250 | -5.26 | -7.89 | 0.16 | -13.1 | – | positive | –
8 | NC[C@H]1O[C@H](O[C@H]2[C@H](O)[C@@H](O[C@H]3O[C@H](CO)[C@@H](O)[C@H](N)[C@H]3O)[C@H](N)C[C@@H]2N)[C@H](N)C[C@@H]1O [tobramycin] | – | – | – | – | – | – | – | – | – | – | – | – | – | – | – | – | 6.4 (≈ 2.99 µg/mL)
9 | CCCCCCCCCCCC[N+](C)(C)Cc1cc(C[n+]2ccccc2)cc(C[N+](C)(C)CCCCCCCCCCCC)c1.[Br-].[Br-].[Br-] [Compound 3] | 2 | 2 | 4 | – | – | – | 1 | 2 | – | 8 | 0.741 | -6.21 | 2.4 | -5.5 | – | negative | –
